Results as given in the CheMixHub viscosity set.

Test: xn = mol fraction of the nth substance listed

O=S(=O)([O-])[O-].[NH3+]O.[NH3+]O + O
viscosity [mPa·s], 101 kPa
Settings	x1 = 0.001	x1 = 0.002	x1 = 0.006	x1 = 0.012	x1 = 0.019	x1 = 0.027	x1 = 0.035	x1 = 0.045
293.15 K	1.022	1.046	1.134	1.264	1.435	1.678	1.925	2.198
298.15 K	0.905	0.931	0.995	1.121	1.277	1.481	1.706	1.983
303.15 K	0.811	0.831	0.89	1.006	1.148	1.317	1.523	1.849
313.15 K	0.666	0.683	0.734	0.825	0.937	1.075	1.244	1.508
323.15 K	0.559	0.573	0.616	0.693	0.791	0.901	1.04	1.247

ClC(Cl)C(Cl)Cl + C1CCOC1
303.15 K, 101 kPa
Settings	viscosity [mPa·s]
x2 = 0.0912	1.403
x2 = 0.1846	1.347
x2 = 0.2753	1.283
x2 = 0.4617	1.108
x2 = 0.5426	1.015
x2 = 0.6763	0.8466
x2 = 0.7791	0.7155
x2 = 0.8994	0.5718
x2 = 0.9513	0.515

ClC(Cl)C(Cl)Cl + CCOC(C)=O
303.15 K, 101.3 kPa
Settings	viscosity [mPa·s]
x2 = 0.15	1.358
x2 = 0.2009	1.306
x2 = 0.3141	1.18
x2 = 0.3963	1.08
x2 = 0.4968	0.9507
x2 = 0.5996	0.8225
x2 = 0.7128	0.6857
x2 = 0.8056	0.5773
x2 = 0.9246	0.4625

COCCOCCOC + c1ccc2c(c1)CCCC2
viscosity [mPa·s], 101.33 kPa
Settings	x1 = 0.1028	x1 = 0.1977	x1 = 0.3019	x1 = 0.3993	x1 = 0.5009	x1 = 0.666	x1 = 0.7016	x1 = 0.7949	x1 = 0.8987
298.15 K	1.786	1.637	1.5	1.396	1.294	1.197	1.144	1.087	1.032
303.15 K	1.619	1.487	1.367	1.275	1.185	1.071	1.05	1	0.95
308.15 K	1.472	1.355	1.249	1.17	1.087	0.984	0.967	0.922	0.879
313.15 K	1.348	1.245	1.15	1.078	1.004	0.913	0.897	0.859	0.815

Oc1ccccc1 + O=Cc1ccccc1
308.15 K, 101.33 kPa
Settings	viscosity [mPa·s]
x2 = 0.107	4.318
x2 = 0.303	2.944
x2 = 0.39	2.642
x2 = 0.499	2.401
x2 = 0.595	1.989
x2 = 0.706	1.55
x2 = 0.904	1.2

ClC(Cl)C(Cl)Cl + CCCC(=O)OCC
viscosity [mPa·s], 101.3 kPa
Settings	308.15 K	318.15 K
x2 = 0.0477	1.326	1.209
x2 = 0.1018	1.243	1.135
x2 = 0.2004	1.11	1.019
x2 = 0.2603	1.04	0.957
x2 = 0.3965	0.906	0.837
x2 = 0.4979	0.824	0.764
x2 = 0.6073	0.753	0.699
x2 = 0.6955	0.701	0.652
x2 = 0.8023	0.649	0.605
x2 = 0.9007	0.61	0.569
x2 = 0.9705	0.585	0.547

C=CC(C)O (configuration not stated) + O
viscosity [mPa·s], 101.32 kPa
Settings	x1 = 0.1003	x1 = 0.2	x1 = 0.3004	x1 = 0.4	x1 = 0.5013	x1 = 0.601	x1 = 0.7012	x1 = 0.8046	x1 = 0.9031
308.15 K	1.553	1.858	1.854	1.765	1.682	1.566	1.457	1.387	1.331
313.15 K	1.347	1.617	1.612	1.535	1.461	1.369	1.28	1.231	1.171
318.15 K	1.189	1.405	1.404	1.345	1.281	1.209	1.13	1.08	1.044
323.15 K	1.049	1.243	1.24	1.187	1.138	1.078	1.007	0.9691	0.9323

COCCOCCOC + COC(C)=O
viscosity [mPa·s], 101.33 kPa
Settings	x1 = 0.1	x1 = 0.198	x1 = 0.2969	x1 = 0.4015	x1 = 0.4988	x1 = 0.5951	x1 = 0.6954	x1 = 0.7941	x1 = 0.8973
298.15 K	0.441	0.498	0.559	0.621	0.683	0.741	0.801	0.861	0.922
303.15 K	0.418	0.47	0.526	0.582	0.639	0.691	0.746	0.799	0.855
308.15 K	0.396	0.445	0.496	0.548	0.6	0.646	0.696	0.745	0.795
313.15 K	0.376	0.418	0.469	0.516	0.564	0.607	0.652	0.697	0.741

N#CCCO + CC#N
298 K, 101 kPa
Settings	viscosity [mPa·s]
x1 = 0.1342	0.466
x1 = 0.2793	0.689
x1 = 0.4366	0.906
x1 = 0.6079	1.358
x1 = 0.7949	2.144

COCCOCCOC + CC(C)CC(C)(C)C
viscosity [mPa·s], 101.33 kPa
Settings	x1 = 0.0931	x1 = 0.1978	x1 = 0.2916	x1 = 0.4016	x1 = 0.4538	x1 = 0.5881	x1 = 0.687	x1 = 0.7926	x1 = 0.8997
298.15 K	0.49	0.511	0.538	0.58	0.602	0.668	0.726	0.808	0.887
303.15 K	0.46	0.481	0.507	0.545	0.564	0.624	0.677	0.741	0.821
308.15 K	0.435	0.455	0.478	0.512	0.529	0.584	0.632	0.69	0.762
313.15 K	0.413	0.43	0.451	0.482	0.5	0.548	0.592	0.647	0.712
318.15 K	0.389	0.405	0.425	0.453	0.468	0.512	0.553	0.601	–

Oc1ccccc1 + O=[N+]([O-])c1ccccc1
293.15 K, 101 kPa
Settings	viscosity [mPa·s]
x1 = 0.0537	1.975
x1 = 0.113	2.041
x1 = 0.2245	2.208
x1 = 0.3306	2.46
x1 = 0.4448	2.845
x1 = 0.5641	3.53
x1 = 0.6497	4.19
x1 = 0.7623	5.4
x1 = 0.8785	7.59

Oc1ccccc1 + c1ccncc1
viscosity [mPa·s], 101 kPa
Settings	293.15 K	303.15 K	313.15 K
x1 = 0.0707	1.109	0.94	0.828
x1 = 0.1391	1.321	1.106	0.965
x1 = 0.213	1.597	1.339	1.152
x1 = 0.2888	2.01	1.634	1.389
x1 = 0.349	2.411	1.963	1.631
x1 = 0.4283	3.215	2.515	2.042
x1 = 0.5063	4.37	3.245	2.56
x1 = 0.5971	5.945	4.29	3.245
x1 = 0.6675	7.48	5.17	3.8
x1 = 0.7481	9.07	6.04	4.305
x1 = 0.8284	10.04	6.625	4.59
x1 = 0.9114	10.72	6.915	4.705

ClC(Cl)C(Cl)Cl + CC(C)=O
298.15 K, 101 kPa
Settings	viscosity [mPa·s]
x1 = 0.2	0.509
x1 = 0.4	0.811
x1 = 0.6	1.138
x1 = 0.8	1.499

O=S(=O)([O-])[O-].[Li+].[Li+] + [2H]O[2H]
viscosity [mPa·s], 101 kPa
Settings	x1 = 0.005	x1 = 0.016	x1 = 0.032	x1 = 0.052
298.15 K	1.243	1.74	2.887	5.343
308.15 K	0.975	1.355	2.216	3.964
318.15 K	0.802	1.102	1.77	3.084

COCCOCCOC + CCCCCCC
viscosity [mPa·s], 101.33 kPa
Settings	x1 = 0.0978	x1 = 0.197	x1 = 0.2958	x1 = 0.3834	x1 = 0.4946	x1 = 0.594	x1 = 0.6956	x1 = 0.7955	x1 = 0.8992
298.15 K	0.407	0.436	0.471	0.508	0.562	0.619	0.689	0.768	0.871
303.15 K	0.386	0.412	0.444	0.478	0.527	0.58	0.643	0.714	0.807
308.15 K	0.367	0.39	0.421	0.451	0.5	0.545	0.602	0.668	0.751
313.15 K	0.351	0.371	0.398	0.426	0.468	0.513	0.566	0.627	0.7
318.15 K	0.333	0.354	0.378	0.404	0.443	0.484	0.532	0.587	0.656

COCCOCCOC + CC(C)CO
viscosity [mPa·s], 101 kPa
Settings	x1 = 0.104	x1 = 0.2048	x1 = 0.3058	x1 = 0.4023	x1 = 0.5027	x1 = 0.605	x1 = 0.7019	x1 = 0.8023	x1 = 0.9024
298.15 K	2.146	1.635	1.377	1.231	1.136	1.076	1.038	1.011	0.995
308.15 K	1.649	1.302	1.121	1.013	0.947	0.904	0.876	0.856	0.846
318.15 K	1.284	1.047	0.938	0.845	0.796	0.78	0.747	0.733	0.726

Oc1ccccc1 + CCCCN(CCCC)CCCC
298.16 K, 101 kPa
Settings	viscosity [mPa·s]
x1 = 0.5219	9.41
x1 = 0.6008	14.9
x1 = 0.6531	23.52
x1 = 0.6723	27.66
x1 = 0.7083	43.54
x1 = 0.7386	64.37
x1 = 0.7532	78.43
x1 = 0.7783	108.3
x1 = 0.7981	126.2
x1 = 0.8207	131.2
x1 = 0.8248	125.7
x1 = 0.8491	110.5
x1 = 0.8704	84.32
x1 = 0.9022	56.08
x1 = 0.9213	40.37
x1 = 0.9711	20.65

Cc1ccc(S(=O)O[C@@H]2C[C@H](C)CC[C@H]2C(C)C)cc1 (some centres not stated) + CCCCO
298 K, 101.3 kPa
Settings	viscosity [mPa·s]
x1 = 0.00285	2.53
x1 = 0.00515	2.538
x1 = 0.007672	2.595
x1 = 0.01005	2.623
x1 = 0.01302	2.653
x1 = 0.01567	2.683

COCCOCCOC + CCCCCCCO
101 kPa
Settings	viscosity [mPa·s]
293.15 K, x1 = 0.04527	5.749
293.15 K, x1 = 0.09631	4.758
293.15 K, x1 = 0.1964	3.424
293.15 K, x1 = 0.2974	2.659
293.15 K, x1 = 0.3948	2.201
293.15 K, x1 = 0.4982	1.826
293.15 K, x1 = 0.5957	1.573
293.15 K, x1 = 0.6957	1.385
293.15 K, x1 = 0.8053	1.255
293.15 K, x1 = 0.8916	1.169
293.15 K, x1 = 0.957	1.12
303.15 K, x1 = 0.05391	4.113
303.15 K, x1 = 0.09481	3.59
303.15 K, x1 = 0.198	2.635
303.15 K, x1 = 0.2974	2.097
303.15 K, x1 = 0.3935	1.765
303.15 K, x1 = 0.4894	1.515
303.15 K, x1 = 0.5993	1.294
303.15 K, x1 = 0.6968	1.153
303.15 K, x1 = 0.8032	1.053
303.15 K, x1 = 0.8887	0.999
303.15 K, x1 = 0.9613	0.958
313.15 K, x1 = 0.05044	3.122
313.15 K, x1 = 0.0869	2.793
313.15 K, x1 = 0.1869	2.128
313.15 K, x1 = 0.2981	1.689
313.15 K, x1 = 0.3977	1.428
313.15 K, x1 = 0.5081	1.228
313.15 K, x1 = 0.5937	1.096
313.15 K, x1 = 0.7001	0.974
313.15 K, x1 = 0.7989	0.903
313.15 K, x1 = 0.8893	0.848
313.15 K, x1 = 0.9538	0.819
